In patent publication US9982017B2, “Synthetic apelin mimetics for the treatment of heart failure” (priority 2012, dated 2018):
Where a SMILES comes first, the peptide text is derived from it. Bridges are numbered along the chain shown (N, C = ends). [ ]: non-standard residue; d: D form. The star is where a group is joined. ξ: configuration not given here. 3Pal = N[C@@H](Cc1cccnc1)C(=O)O; Myristoyl = CCCCCCCCCCCCCC(=O)*; pGlu = O=C1CC[C@@H](C(=O)O)N1; NHPhenethyl = c1ccc(CCN*)cc1; hCys = N[C@@H](CCS)C(=O)O; Nle = CCCC[C@H](N)C(=O)O; Dab = NCC[C@H](N)C(=O)O; AEEA = NCCOCCOCC(=O)O; ξPip = O=C(O)C1CCCCN1

Assay: in vitro
Settings: rat, not told, Surrogate activity-based Plasma stability t½

Compound	half-life [h]
CCCC[C@@H]1NC(=O)[C@@H]2CCCN2C(=O)CNC(=O)[C@H](Cc2ccccc2)NC(=O)[C@H](Cc2c[nH]cn2)NC(=O)[C@@H](NC(=O)[C@H](CC(C)C)NC(=O)[C@H](CCCNC(=N)N)NC(=O)[C@@H]2CCCN2C(=O)[C@H](CCCNC(=N)N)NC(=O)[C@@H]2CCC(=O)N2)CCCCNC(=O)C[C@@H](C(=O)NCCc2ccccc2)NC1=O [Example 1, pE-R-P-R-L-K-H-F-G-P-Nle-D-Phenethylamine] ([pGlu]RPRLKHFGP[Nle]D-NHPhenethyl; lactam 6-12)	0.512
CC(C)C[C@H](NC(=O)[C@H](CCCNC(=N)N)NC(=O)[C@@H]1CCCN1C(=O)[C@H](CCCNC(=N)N)NC(=O)[C@@H]1CCC(=O)N1)C(=O)N[C@H]1CSSC[C@@H](C(=O)N[C@@H](Cc2ccccc2)C(=O)O)NC(=O)[C@H](Cc2cccnc2)NC(=O)[C@@H]2CCCN2C(=O)CNC(=O)[C@H](CCCCN)NC(=O)[C@H](Cc2c[nH]cn2)NC1=O [Example 47, pE-R-P-R-L-C-H-K-G-P-(3-PyA)-C-F-OH] ([pGlu]RPRLCHKGP[3Pal]CF-OH; disulfide 6-12)	6.98
CCCC[C@@H]1NC(=O)[C@@H]2CCCN2C(=O)CNC(=O)[C@H](Cc2ccccc2)NC(=O)[C@H](Cc2c[nH]cn2)NC(=O)[C@@H](NC(=O)[C@H](CC(C)C)NC(=O)[C@H](CCCNC(=N)N)NC(=O)[C@@H]2CCCN2C(=O)[C@H](CCCNC(=N)N)NC(=O)[C@@H]2CCC(=O)N2)CCNC(=O)C[C@@H](C(=O)NCCc2ccccc2)NC1=O [Example 4, pE-R-P-R-L-Dab-H-F-G-P-Nle-D-Phenethylamine] ([pGlu]RPRL[Dab]HFGP[Nle]D-NHPhenethyl; lactam 6-12)	0.833
CCCC[C@@H]1NC(=O)[C@@H]2CCCN2C(=O)CNC(=O)[C@H](CCCCN)NC(=O)[C@H](Cc2ccccc2)NC(=O)[C@@H](NC(=O)[C@H](CC(C)C)NC(=O)[C@H](CCCNC(=N)N)NC(=O)[C@@H]2CCCN2C(=O)[C@H](CCCNC(=N)N)NC(=O)[C@@H]2CCC(=O)N2)CSSC[C@@H](C(=O)N[C@@H](Cc2ccccc2)C(=O)O)NC1=O [Example 15, pE-R-P-R-L-C-F-K-G-P-Nle-C-F-OH] ([pGlu]RPRLCFKGP[Nle]CF-OH; disulfide 6-12)	3.01
CCCC[C@@H]1NC(=O)[C@@H]2CCCN2C(=O)CNC(=O)[C@H](CCCCN)NC(=O)[C@H](Cc2c[nH]cn2)NC(=O)[C@@H](NC(=O)[C@H](CC(C)C)NC(=O)[C@H](CCCNC(=N)N)NC(=O)[C@@H]2CCCN2C(=O)[C@H](CCCNC(=N)N)NC(=O)[C@@H]2CCC(=O)N2)CSSCC[C@@H](C(=O)N[C@@H](Cc2ccccc2)C(=O)O)NC1=O [Example 51, pE-R-P-R-L-C-H-K-G-P-Nle-hC-F-OH] ([pGlu]RPRLCHKGP[Nle][hCys]F-OH; disulfide 6-12)	10.9
CCCC[C@@H]1NC(=O)[C@@H]2CCCN2C(=O)CNC(=O)[C@H](CCCCN)NC(=O)[C@H](Cc2c[nH]cn2)NC(=O)[C@@H](NC(=O)[C@H](CC(C)C)NC(=O)[C@H](CCCNC(=N)N)NC(=O)[C@@H]2CCCN2C(=O)[C@H](CCCNC(=N)N)NC(=O)[C@@H]2CCC(=O)N2)CSSC[C@H](C(=O)N[C@@H](Cc2ccccc2)C(=O)O)NC1=O [Example 56, pE-R-P-R-L-C-H-K-G-P-Nle-c-F-OH] ([pGlu]RPRLCHKGP[Nle][dC]F-OH; disulfide 6-12)	> 16.7
CCCC[C@@H]1NC(=O)[C@@H]2CCCN2C(=O)CNC(=O)[C@H](CCCCN)NC(=O)[C@H](Cc2c[nH]cn2)NC(=O)[C@@H](NC(=O)[C@H](CC(C)C)NC(=O)[C@H](CCCNC(=N)N)NC(=O)[C@H](CC(=O)O)NC(=O)[C@H](CCCNC(=N)N)NC(=O)[C@@H]2CCC(=O)N2)CSSC[C@@H](C(=O)N[C@@H](Cc2ccccc2)C(=O)O)NC1=O [Example 35, pE-R-D-R-L-C-H-K-G-P-Nle-C-F-OH] ([pGlu]RDRLCHKGP[Nle]CF-OH; disulfide 6-12)	> 16.7
CCCCCCCCCCCCCC(=O)NCCOCCOCC(=O)NCCOCCOCC(=O)NCCOCCOCC(=O)NCCOCCOCC(=O)N[C@@H](CCC(N)=O)C(=O)N[C@@H](CCCNC(=N)N)C(=O)N1CCC[C@H]1C(=O)N[C@@H](CCCNC(=N)N)C(=O)N[C@@H](CC(C)C)C(=O)N[C@H]1CSSC[C@@H](C(=O)N[C@H](Cc2ccccc2)C(=O)O)NC(=O)[C@H](CCCC)NC(=O)[C@@H]2CCCN2C(=O)CNC(=O)[C@H](CCCCN)NC(=O)[C@H](Cc2c[nH]cn2)NC1=O [Example 60, Myristoyl-O2Oc-O2Oc-O2Oc-O2Oc-Q-R-P-R-L-C-H-K-G-P-Nle-C-f-OH] ({Myristoyl-AEEA-AEEA-AEEA-AEEA}-QRPRLCHKGP[Nle]C[dF]-OH; disulfide 6-12)	> 16.7
CCCC[C@@H]1NC(=O)[C@@H]2CCCN2C(=O)CNC(=O)[C@H](CCCCN)NC(=O)[C@H](Cc2c[nH]cn2)NC(=O)[C@@H](NC(=O)[C@H](CC(C)C)NC(=O)[C@H](CCCNC(=N)N)NC(=O)[C@@H]2CCCN2C(=O)[C@H](CCCNC(=N)N)NC(=O)[C@@H]2CCC(=O)N2)CSSC[C@@H](C(N)=O)NC1=O [Example 63, pE-R-P-R-L-C-H-K-G-P-Nle-C-NH2] ([pGlu]RPRLCHKGP[Nle]C-NH2; disulfide 6-12)	11.7
CCCCCCCCCCCCCC(=O)NCCCC[C@@H]1NC(=O)[C@H](Cc2c[nH]cn2)NC(=O)[C@@H](NC(=O)[C@H](CC(C)C)NC(=O)[C@H](CCCNC(=N)N)NC(=O)[C@@H]2CCCN2C(=O)[C@H](CCCNC(=N)N)NC(=O)[C@@H]2CCC(=O)N2)CSSC[C@@H](C(=O)N[C@@H](Cc2ccccc2)C(=O)O)NC(=O)[C@H](CCCC)NC(=O)[C@@H]2CCCN2C(=O)CNC1=O [Example 61, pE-R-P-R-L-C-H-K(Myristoyl)-G-P-Nle-C-F-OH] ([pGlu]RPRLCHK(Myristoyl)GP[Nle]CF-OH; disulfide 6-12)	4.33
CCCC[C@@H]1NC(=O)[C@@H]2CCCN2C(=O)CNC(=O)[C@H](CCCCN)NC(=O)[C@H](Cc2c[nH]cn2)NC(=O)[C@@H](NC(=O)[C@H](CC(C)C)NC(=O)[C@H](Cc2ccccc2)NC(=O)[C@@H]2CCCN2C(=O)[C@H](CCCNC(=N)N)NC(=O)[C@@H]2CCC(=O)N2)CSSC[C@@H](C(=O)N[C@@H](Cc2ccccc2)C(=O)O)NC1=O [Example 36, pE-R-P-F-L-C-H-K-G-P-Nle-C-F-OH] ([pGlu]RPFLCHKGP[Nle]CF-OH; disulfide 6-12)	> 16.7
CCCC[C@@H]1NC(=O)[C@@H]2CCCN2C(=O)CNC(=O)[C@H](CCCCN)NC(=O)[C@H](Cc2c[nH]cn2)NC(=O)[C@@H](NC(=O)[C@H](CCCCN)NC(=O)[C@H](CCCNC(=N)N)NC(=O)[C@@H]2CCCN2C(=O)[C@H](CCCNC(=N)N)NC(=O)[C@@H]2CCC(=O)N2)CSSC[C@@H](C(=O)N[C@@H](Cc2ccccc2)C(=O)O)NC1=O [Example 37, pE-R-P-R-K-C-H-K-G-P-Nle-C-F-OH] ([pGlu]RPRKCHKGP[Nle]CF-OH; disulfide 6-12)	2.74
CCCC[C@@H]1NC(=O)[C@@H]2CCCN2C(=O)[C@H](CC(=O)O)NC(=O)[C@H](CCCCN)NC(=O)[C@H](Cc2c[nH]cn2)NC(=O)[C@@H](NC(=O)[C@H](CC(C)C)NC(=O)[C@H](CCCNC(=N)N)NC(=O)[C@@H]2CCCN2C(=O)[C@H](CCCNC(=N)N)NC(=O)[C@@H]2CCC(=O)N2)CSSC[C@@H](C(=O)N[C@@H](Cc2ccccc2)C(=O)O)NC1=O [Example 39, pE-R-P-R-L-C-H-K-D-P-Nle-C-F-OH] ([pGlu]RPRLCHKDP[Nle]CF-OH; disulfide 6-12)	10.9
CCCC[C@@H]1NC(=O)[C@@H]2CCCN2C(=O)CNC(=O)[C@H](CCCCN)NC(=O)[C@H](Cc2cnc[nH]2)NC(=O)[C@@H](NC(=O)[C@H](CC(C)C)NC(=O)[C@H](CCCNC(=N)N)NC(=O)[C@@H]2CCCN2C(=O)[C@H](CCCNC(=N)N)NC(=O)[C@@H]2CCC(=O)N2)CSC/C(=N/OCC(=O)NCCNC(=O)COCCOCCNC(=O)CCC(NC(=O)CCCCCCCCCCCCCCCCC(=O)O)C(=O)O)CSC[C@@H](C(=O)N[C@@H](Cc2ccccc2)C(=O)O)NC1=O (stereo partly shown) [Example 66]	9.93
CCCC[C@@H]1NC(=O)[C@@H]2CCCN2C(=O)CNC(=O)[C@H](CCCCN)NC(=O)[C@H](Cc2c[nH]cn2)NC(=O)[C@@H](NC(=O)[C@H](CC(C)C)NC(=O)[C@H](CCCNC(=N)N)NC(=O)[C@@H]2CCCN2C(=O)[C@H](CCCNC(=N)N)NC(=O)[C@@H]2CCC(=O)N2)CCSSCC[C@@H](C(=O)N[C@@H](Cc2ccccc2)C(=O)O)NC1=O [Example 52, pE-R-P-R-L-hC-H-K-G-P-Nle-hC-F-OH] ([pGlu]RPRL[hCys]HKGP[Nle][hCys]F-OH; disulfide 6-12)	13
CCCC[C@@H]1NC(=O)[C@@H]2CCCN2C(=O)CNC(=O)[C@H](CCCCN)NC(=O)[C@H](Cc2c[nH]cn2)NC(=O)[C@@H](NC(=O)[C@H](CC(C)C)NC(=O)[C@H](CCCNC(=N)N)NC(=O)[C@@H]2CCCN2C(=O)[C@H](CCCNC(=N)N)NC(=O)[C@@H]2CCC(=O)N2)CSSC[C@@H](C(=O)N[C@@H](Cc2c[nH]cn2)C(=O)O)NC1=O [Example 48, pE-R-P-R-L-C-H-K-G-P-Nle-C-H-OH] ([pGlu]RPRLCHKGP[Nle]CH-OH; disulfide 6-12)	9.11
CCCC[C@@H]1NC(=O)[C@@H]2CCCN2C(=O)CNC(=O)[C@H](CCCCN)NC(=O)[C@H](Cc2c[nH]cn2)NC(=O)[C@@H](NC(=O)[C@H](CC(C)C)NC(=O)[C@H](CCCNC(=N)N)NC(=O)[C@@H]2CCCN2C(=O)[C@H](Cc2ccccc2)NC(=O)[C@@H]2CCC(=O)N2)CSSC[C@@H](C(=O)N[C@@H](Cc2ccccc2)C(=O)O)NC1=O [Example 31, pE-F-P-R-L-C-H-K-G-P-Nle-C-F-OH] ([pGlu]FPRLCHKGP[Nle]CF-OH; disulfide 6-12)	> 16.7
CCCC[C@@H]1NC(=O)C2CCCCN2C(=O)CNC(=O)[C@H](CCCCN)NC(=O)[C@H](Cc2c[nH]cn2)NC(=O)[C@@H](NC(=O)[C@H](CC(C)C)NC(=O)[C@H](CCCNC(=N)N)NC(=O)[C@@H]2CCCN2C(=O)[C@H](CCCNC(=N)N)NC(=O)[C@@H]2CCC(=O)N2)CSSC[C@@H](C(=O)N[C@@H](Cc2ccccc2)C(=O)O)NC1=O (stereo partly drawn) [Example 46, pE-R-P-R-L-C-H-K-G-(Pipecolic acid)-Nle-C-F-OH] ([pGlu]RPRLCHKG[ξPip][Nle]CF-OH; disulfide 6-12)	8.37
CCCC[C@@H]1NC(=O)[C@@H]2CCCN2C(=O)CNC(=O)[C@H](CCC(=O)O)NC(=O)[C@H](Cc2c[nH]cn2)NC(=O)[C@@H](NC(=O)[C@H](CC(C)C)NC(=O)[C@H](CCCNC(=N)N)NC(=O)[C@@H]2CCCN2C(=O)[C@H](CCCNC(=N)N)NC(=O)[C@@H]2CCC(=O)N2)CSSC[C@@H](C(=O)N[C@@H](Cc2ccccc2)C(=O)O)NC1=O [Example 38, pE-R-P-R-L-C-H-E-G-P-Nle-C-F-OH] ([pGlu]RPRLCHEGP[Nle]CF-OH; disulfide 6-12)	> 16.7
